# Columns and labels:
# [1] = tested on: Oslrk1 mutant seeds and seedlings; assay: Germination and growth of Oslrk1 mutant seeds in galactose/mannose containing media; type: in vivo, Oryza sativa; conditions: for behavior of the mutant compared with the WT upon treatment: sugar 0.1% to 1% along with Suc
# From the text: (§1) The altered expression of the Oslrk1 by different sugars described above led us to study the response of the mutant to these monosaccharides and sucrose. The WT and the mutant seeds were germinated and grown in Gal, Man, Glu, Fm along with Suc at different concentrations (ranging from 0.1% to 1%) and Suc alone containing medium as a control. The following parameters were taken into account during observation: the shoot length, the number and the length of adventitious roots and the germination rate. […] Out of these three sugars tested, Man was selected as an example as its inhibitory effect was similar in seeds and seedlings of WT and mutant as shown in FIGS. 10A and B. The seed germination was severely affected by Man.
# (§2) At 1.0% of the Gal, the shoot length decreased by half in the mutant, whereas only by 15% in the WT seedlings. […] Apart from this, the germination rate of the WT seeds dropped to 85% whereas in the mutant it dropped to 30%.
# (§3) Germination of WT and mutant seeds in galactose/mannose containing media. WT and mutant seeds were germinated separately on MS medium containing 0.8% agar and 1% sucrose. In addition, D(+)galactose/D(+/−)mannose was added in different concentrations (0.1, 0.2, 0.5, and 1.0%) along with a control (MS with 1% of sucrose). At 14 days after germination, the observations for adventitious root number and length (cm), shoot length (cm) and germination rate (%) were recorded.
# Oslrk8 = assay: RT-PCR of Oslrks in treated 2 week-old seedlings; type: in vivo, Oryza sativa; conditions: treated vs control
# Protocol: (§4) RT-PCRs were carried out on RNA samples isolated from 2 week-old seedlings treated with various sugar (FIG. 13), hormone (FIG. 14), and abiotic stresses (FIG. 15) using primers designated to either 3′ or 5′ Untranslated Regions (UTRs) of the 15 Oslrks found in Table 2. For each Oslrk two lanes in the gel are found, the first lane is the control and the second one treatment samples.
# (§5) Table 3 provides a summary of all the above referenced data on the Oslrks, showing the RT-PCR results of various treatments, including sugar, hormone and abiotic stress and northern blot results on various tissues of rice plant grown in normal conditions, and the ESTs, or cDNAs availability in the database. In the table, “I” represents induced expression and “R” represents repressed expression.
# Oslrk4 = assay: RT-PCR of Oslrks in treated 2 week-old seedlings; type: in vivo, Oryza sativa; conditions: treated vs control
# Protocol: as §4, §5
# Oslrk5 = assay: RT-PCR of Oslrks in treated 2 week-old seedlings; type: in vivo, Oryza sativa; conditions: treated vs control
# Protocol: as §4, §5
# Oslrk11 = assay: RT-PCR of Oslrks in treated 2 week-old seedlings; type: in vivo, Oryza sativa; conditions: treated vs control
# Protocol: as §4, §5
# WT seeds and seedlings = assay: Germination and growth of WT seeds in galactose/mannose containing media; type: in vivo, Oryza sativa
# From the text: as §1, §2, §3
# Oslrk1 gene [2] = assay: Northern-blot of Oslrk1 transcript in WT seedlings treated with hormones and SA; type: in vivo, Oryza sativa; conditions: for Oslrk1 gene expression repressed by: 3' UTR probe, vs untreated
# From the text: Differential Regulation of Oslrk1 Gene Expression by Hormones. Receptor-like kinases were postulated to be involved in signal transduction events as they perceive a signal via a ligand-binding extracellular domain and transmit it through the serine/threonine kinase domain into the cytosol (Shiu and Bleecker, 2001). In order to know possible factors influencing the Oslrk1 gene regulation, we analyzed promoter of the Oslrk1 (1.5 kb) for the presence of cis-acting elements using the program PlantCARE (Lescot et al., 2002). Three TGAGC motifs observed in MeJA inducible genes were found in promoter of the Oslrk1 at the positions −186, −657 and −1190. Apart from these, three GA3 inducible motifs (P-box-CCTTxt) −101, −206 and −740 bp upstream of the Oslrk1 ORF were located. In addition, five salicylic acid inducible motifs (TCA-elementcAGAAa/ga) at the positions of −321, −601, −604, −855 and −1135 were detected. The presence of MeJA, GA and SA responsive cis-elements in the Oslrk1 promoter indicated possible regulatory roles of these factors. The promoter analysis led us to study the effect of different hormones and compounds on the Oslrk1 transcription. The WT seeds were germinated for […] then seedlings were transferred to the medium containing one of the following chemicals: […], MeJA, GA3 or ABA at concentration 100 uM and SA (5 mM) for 24 hours (Materials and Methods). The total RNA isolated from the untreated and treated seedlings were used in Northern-blot hybridization using 3′ UTR of the Oslrk1 gene as a probe. The treatment with GA3 and SA repressed the Oslrk1 gene expression (FIG. 8A) by 2.5 and 3.3 times respectively. […] In order to confirm the level of induction of the Oslrk1 gene by MeJA over time, in another series of experiments, a time course was performed after hormone treatment. Seven day old seedlings were sprayed with 100 uM of MeJA solution and they were harvested in 1, 2, 4, 6, 8, and 12 hours.
# RNA Isolation and Northern-blot Analysis. RNA was isolated from different organs of rice plant at different developmental stages (roots of 10-14 days old seedlings and 2 months old plants, 10-14 days old seedlings, young and mature leaves, panicles at the flowering stage and calli) using a RNeasy Plant mini kit (Qiagen,). The RNA (10 ug) was fractionated on a 1.2% denaturating formaldehyde agarose gel and transferred onto a Hybond-N^+ membrane (Amersham). The bolts were hybridized with dogoxigenin (DIG)-labeled probes in DIG Easy Hyb solution (Roche) at 50° C. After hybridization, membranes were washed twice with 2×SSC and 0.1% SDS for 15 min, then twice with 0.5×SSC and 0.1% SDS for 15 min at 68° C. Detection was carried out according to manufacturer using DIG Wash and Block Buffer set and chemiluminescent substrate CDP Star™ (Roche). DIG-labelled probe corresponded to 3′UTR and lectin domain of Oslrk1 was used. For the control of RNA quantity, DIG-probe corresponding to rice Actin1 gene was synthesized using the following primers: […]
# (§6) The RT-PCRs and Northern blots were repeated at least thrice and similar results were obtained. The quantification of the intensity of the hybridization signals was performed using Quantity ONE 4.5.0 software in Gel doc XR documentation system (Bio-Rad Laboratories, Inc., USA). The level of actual expression was calculated as a ratio of intensity of specific signal (Oslrk1 3′UTR probe) to the intensity of signal of positive control (rice Act1).
# Treatment of WT Seedlings with Hormones and Sugars. Two week old WT seedlings were transferred to MS medium containing 100 μM of different hormones, such as Indole 3-Acetic Acid (IAA), Abscisic acid (ABA), Methyl Jasmonate (MeJA), or Gibbrellic Acid (GA3) and 5 mM of Salicylic Acid (SA), and were grown for 24 hours under normal day/light conditions. Total RNA was extracted from root of the seedlings and whole seedlings. […]
# Oslrk1 mutant seedlings = assay: Growth of Oslrk1 mutant seedlings in MeJA or GA3 containing medium; type: in vivo, Oryza sativa
# Protocol: (§7) In order to study the effect of phytohormones on the Oslrk1 mutant, seeds were grown in medium containing different concentrations of either MeJA ([…]) (FIG. 9A) or GA3 (0.5, 1, 5 and 10 μm) (data not shown) along with WT as a control The number and length of adventitious roots, number of lateral roots and shoot length were measured. […] In the WT seedlings the number of the lateral roots was increased at 5 uM and decreased by at 10 uM.
# (§8) The adventitious root length of WT increased by 50% at 10 uM concentration of GA3, but it was not altered in the mutant (data not shown).
# (§9) Plant Growth Conditions. Surface sterilized rice seeds were germinated and grown in cell culture containers (Phytatray II Sigma cell culture, USA) on 0.8% agar MS medium (Murashige and Skoog medium, Sigma., St. Louis Mo., USA) containing 1% of Suc for 2 weeks under 16/8 hours photoperiod. All chemicals used for the various treatments were purchased from Sigma.
# (§10) Growth of WT and Mutant Seedlings in MeJA Containing Medium WT and mutant seeds were germinated and grown in MS medium (1% Suc) containing different concentrations of MeJA (1 μM, 5 μM, and 10 μM) for two weeks. No MeJA was added in the control. The number and length (cm) of adventitious roots as well as the number of lateral roots were measured.
# WT seedlings = assay: Growth of WT seedlings in MeJA or GA3 containing medium; type: in vivo, Oryza sativa
# Protocol: as §7, §8, §9, §10
# Oslrk1 gene [3] = assay: Northern-blot of Oslrk1 transcript in WT seedlings treated with sugars; type: in vivo, Oryza sativa; conditions: sugars 175 mM, 48 hours, Mannitol as osmotic control
# Protocol: Lectins are known as carbohydrate-binding proteins that specifically recognize diverse sugar structures (Vijayan and Chandra, 1999). […] Five different sugars: glucose (Glu), sucrose (Suc), fructose (Fm), Gal and Man were used for this study along with Mannitol as an osmotic control (Methods). Northern-blot hybridizations were carried out on the total RNA isolated from treated seedlings.
# RNA Isolation and Northern-blot Analysis. RNA was isolated from different organs of rice plant at different developmental stages (roots of 10-14 days old seedlings and 2 months old plants, 10-14 days old seedlings, young and mature leaves, panicles at the flowering stage and calli) using a RNeasy Plant mini kit (Qiagen,). […] For the control of RNA quantity, DIG-probe corresponding to rice Actin1 gene was synthesized using the following primers: […]
# as §6, with “Act1). […]” for “Act1).”
# adventitious roots = conditions: rice, Moons et al., 1997; cited from earlier work
# Oslrk10 = assay: RT-PCR of Oslrks in treated 2 week-old seedlings; type: in vivo, Oryza sativa; conditions: Rt, treated vs control
# Protocol: as §4, §5
# Oslrk2 = assay: RT-PCR of Oslrks in treated 2 week-old seedlings; type: in vivo, Oryza sativa; conditions: treated vs control
# Protocol: as §4, §5
# [4] = GA3 10 uM, two weeks in MS agar
# [5] = seedlings sprayed with 100 uM, time course 1-12 hours
structure (smiles),measurement,setting,value
"O=C[C@@H](O)[C@@H](O)[C@H](O)[C@H](O)CO (racemic) [Man, mannose]","effect on any parameters tested (shoot length, number and length of adventitious roots, germination rate)","[1]; Oslrk1 mutant, mannose 0.1%",No obvious effect
same,seed germination rate,"[1]; Oslrk1 mutant, mannose 0.2%",35%
same,seed germination,"[1]; Oslrk1 mutant, mannose 0.5%",did not germinate
same,behavior of the mutant compared with the WT upon treatment,[1],No significant differences
same,"Oslrk8 expression by RT-PCR, Rt",Oslrk8,I
same,"Oslrk4 expression by RT-PCR, Rt",Oslrk4,I
same,"Oslrk5 expression by RT-PCR, Rt",Oslrk5,I
same,"Oslrk5 expression by RT-PCR, Sh",Oslrk5,R
same,"Oslrk11 expression by RT-PCR, Rt",Oslrk11,I
same,"effect on any parameters tested (shoot length, number and length of adventitious roots, germination rate)",WT seeds and seedlings; mannose 0.1%,No obvious effect
same,seed germination rate,WT seeds and seedlings; mannose 0.2%,35%
same,seed germination,WT seeds and seedlings; mannose 0.5%,did not germinate
"O=C(CO)[C@@H](O)[C@H](O)[C@H](O)CO [Fm, fructose]",behavior of the mutant compared with the WT upon treatment,[1],No significant differences
"C=C1C[C@]23C[C@@]1(O)CC[C@H]2[C@@]12C=C[C@H](O)[C@@](C)(C(=O)O1)[C@H]2[C@@H]3C(=O)O [GA3, Gibbrellic Acid]",Oslrk1 gene expression repressed by,"Oslrk1 gene [2]; 100 uM, 24 hours, WT seedlings",2.5 times
same,adventitious root length,Oslrk1 mutant seedlings; [4],not altered
same,"Oslrk8 expression by RT-PCR, Rt",Oslrk8,I
same,"Oslrk4 expression by RT-PCR, Rt",Oslrk4,I
same,"Oslrk5 expression by RT-PCR, Rt",Oslrk5,I
same,"Oslrk11 expression by RT-PCR, Rt",Oslrk11,I
same,"Oslrk11 expression by RT-PCR, Sh",Oslrk11; Sh,R
same,adventitious root length increased by,WT seedlings; [4],50%
"O=C[C@H](O)[C@@H](O)[C@H](O)[C@H](O)CO [Glu, glucose]",behavior of the mutant compared with the WT upon treatment,[1],No significant differences
same,"Oslrk8 expression by RT-PCR, Rt",Oslrk8,I
same,"Oslrk8 expression by RT-PCR, Sh",Oslrk8; Sh,R
same,"Oslrk4 expression by RT-PCR, Rt",Oslrk4,I
same,"Oslrk4 expression by RT-PCR, Sh",Oslrk4,R
OC[C@@H](O)[C@@H](O)[C@H](O)[C@H](O)CO [Mannitol],Oslrk1 expression in response to sugars,Oslrk1 gene [3],not altered
"CC/C=C\CC1C(=O)CCC1CC(=O)OC (stereo not drawn) [MeJA, Methyl Jasmonate]","Oslrk1 transcript, intensity of the hybridization signal increased by","Oslrk1 gene [2]; 100 uM, 24 hours, WT seedlings, compared to the control",3.2 times
same,maximum induction of Oslrk1 expression relative to untreated sample,Oslrk1 gene [2]; [5],approximately 3 times
same,time of maximum Oslrk1 induction,Oslrk1 gene [2]; [5],8 h
same,number of adventitious roots,Oslrk1 mutant seedlings; MeJA 10 uM,opposite to the effect observed at 5 uM
same,number of lateral roots,"Oslrk1 mutant seedlings; MeJA 1, 5, 10 uM",no significant changes
same,shoot length,"Oslrk1 mutant seedlings; MeJA 1, 5, 10 uM, two weeks",decreased
same,number of adventitious roots,Oslrk1 mutant seedlings; MeJA up to 5 uM,gradually increased
same,length of adventitious roots,Oslrk1 mutant seedlings; MeJA up to 10 uM,not reduced significantly
same,"Oslrk4 expression by RT-PCR, Rt",Oslrk4,I
same,"Oslrk4 expression by RT-PCR, Sh",Oslrk4,R
same,"Oslrk5 expression by RT-PCR, Rt",Oslrk5,I
same,"Oslrk5 expression by RT-PCR, Sh",Oslrk5,R
same,number of the lateral roots,WT seedlings; MeJA 5 uM,increased
same,number of adventitious roots,WT seedlings; MeJA 10 uM,opposite to the effect observed at 5 uM
same,number of the lateral roots,WT seedlings; MeJA 10 uM,decreased
same,reduction in length of adventitious roots,WT seedlings; MeJA 10 uM,approximately 75%
same,shoot length,"WT seedlings; MeJA 1, 5, 10 uM, two weeks",decreased
same,number of adventitious roots,WT seedlings; MeJA up to 5 uM,gradually increased
same,concentration at which development of adventitious roots was inhibited,adventitious roots,more than 3 μM
"O=C(O)c1ccccc1O [SA, Salicylic Acid]",Oslrk1 gene expression repressed by,"Oslrk1 gene [2]; 5 mM, 24 hours, WT seedlings",3.3 times
same,"Oslrk8 expression by RT-PCR, Rt",Oslrk8,I
same,"Oslrk10 expression by RT-PCR, Rt",Oslrk10,I
same,"Oslrk4 expression by RT-PCR, Rt",Oslrk4,I
same,"Oslrk5 expression by RT-PCR, Rt",Oslrk5,I
same,"Oslrk11 expression by RT-PCR, Rt",Oslrk11,I
"OC[C@H]1O[C@@](CO)(O[C@H]2O[C@H](CO)[C@@H](O)[C@H](O)[C@H]2O)[C@@H](O)[C@@H]1O [Suc, sucrose]","Oslrk2 expression by RT-PCR, Rt",Oslrk2; Rt,I
same,"Oslrk2 expression by RT-PCR, Sh",Oslrk2; Sh,R
same,"Oslrk5 expression by RT-PCR, Rt",Oslrk5,I
same,"Oslrk5 expression by RT-PCR, Sh",Oslrk5,I
same,"Oslrk11 expression by RT-PCR, Rt",Oslrk11,I

# — patent publication US20080271210A1, “Oryza Sativa Lectin-Like Receptor Kinase 1 (Oslrk1), a Gene Involved in Plant Development” (Temasek Life Sciences Laboratory National University of …, priority 2004, published 2008)
